Data set [1] relates to adrenergic nerve terminals. To be noted: cited from earlier work; for neuronal uptake and storage: literature.
Data set [2] relates to baboon mycocardium (left ventricular wall and septum). The experiment in a line: PET study of baboon heart after injection of racemic 6-[^18 F]FNE. The class given is in vivo, baboon (Papio anubis). As for the experimental part:
(§1) FIG. 8 is a time-activity curve for F-18 in the baboon mycocardium (left ventricular wall and septum) after injection of 5 mCi of racemic 6-[^18 F]FNE. FIG. 9 is a graph showing plasma clearance of F-18 in the baboon after injection of racemic 6-[^18 F]FNE. […] Radioactivity remained at 0.032% of the peak activity by 120 minutes post injection. The ratio of myocardium to plasma was 7 at 5 minutes and 11.2 at 135 minutes. The experiment was carried out as follows:
(§2) Adult female baboons were anesthetized and prepared for PET studies as described by Dewey et al., Synapse, 5, 213 (1990) the description of which is incorporated by reference herein. A solution of racemic 6-[^18 F]FNE (5 mCi, 0.4 μg) in 3 mL of saline was injected intravenously. Scanning was performed for 140 minutes in a Computer Technology Imaging (CTI) positron tomograph (model 931-08/12; 15 slice, 6.5-mm slice thickness, full width at half maximum (FWHM) with an in-plane resolution of 6.0×6.0 mm (FWHM). The following scanning protocol was used: ten 30-s scans, followed by five 60-s scans, followed by ten 5-minute scans, followed by eight 10-minute scans. In every case, an initial transmission scan was performed 2.0 minutes prior to radiotracer injection in order to determine the proper position of the animal in the gantry. Upon completion of this scan, adjustments in position were made as necessary and a regular transmission scan (10 minutes) was performed in order to correct for the attenuation of the annihilation photons. The tomograph was cross calibrated with the well-counter used for the measurement of radioactivity in the plasma samples. A rectilinear scan was performed by placing the baboon's head in the gantry and moving through the rostral caudal extent of the animal (10-mm increments) to include the bladder at the most caudal level. Scanning was performed for 1.5 minutes at each position. Vital signs including heart and respiratory rate were monitored and recorded throughout the length of the study.
The time-activity curve for F-18 after the injection of 6-[^18 F]FNE was generated from a region of interest over the left ventricular wall and the septum. Immediately following completion of the dynamic acquisition, a rectilinear scan (qualitative) was performed beginning at the head and continuing throughout the rostral-caudal extent of the trunk.

On the set-up of data set [3]: species or system baboon (Papio anubis). To be noted: in vivo. As to the method: as §2, with “A rectilinear scan was performed by placing the baboon's head in the gantry and moving through the rostral caudal extent of the animal (10-mm increments) to include the bladder at the most caudal level. Scanning was performed for 1.5 minutes at each position.” left out, “study. […]” for “study.”

Data set [4] in a line: Plasma/blood clearance of F-18 in the baboon. The class given is in vivo, baboon (Papio anubis). To be noted: racemic, 5 mCi i.v. As for the experimental part: as §1
Adult female baboons were anesthetized and prepared for PET studies as described by Dewey et al., Synapse, 5, 213 (1990) the description of which is incorporated by reference herein. A solution of racemic 6-[^18 F]FNE (5 mCi, 0.4 μg) in 3 mL of saline was injected intravenously. […] The tomograph was cross calibrated with the well-counter used for the measurement of radioactivity in the plasma samples. […] Vital signs including heart and respiratory rate were monitored and recorded throughout the length of the study.

Data set [5] is described as follows: Vital signs including heart and respiratory rate during PET study. It is filed as in vivo, baboon (Papio anubis). To be noted: at any time during the study; 5 mCi, 0.4 μg i.v. As for the experimental part: as §2, with “A rectilinear scan was performed by placing the baboon's head in the gantry and moving through the rostral caudal extent of the animal (10-mm increments) to include the bladder at the most caudal level. Scanning was performed for 1.5 minutes at each position.” left out, “study. […]” for “study.”

Data set [6] has as its system dopamine β-hydroxylase. The class given is biochemical. To be noted: pH 5.7, 30° C.; for product formed by dopamine β-hydroxylase: substrate incubation, chiral HPLC. As for the experimental part: Two enzyme incubations, with dopamine and 6-fluorodopamine, respectively, were performed simultaneously, as follows:
12(a) Dopamine Hydroxylation. A mixture of 0.5 mg of dopamine, potassium phosphate buffer (0.3 mL, pH 5.7), 0.5M ascorbic acid (0.02 mL, pH 5.7), 1M sodium formate (0.05 mL), and dopamine β-hydroxylase solution (0.05 mL) was stirred in a closed vial at 30° C. The cap was removed and the vial was shaken periodically. An aliquot (ca. 1 μL) was withdrawn and subjected to chiral HPLC analysis as the reaction progressed. HPLC conditions were as follows: Crownpak CR (+) columns, 15×0.46 cm, 254 nm, 0.02M HClO4, 0.7 mL/min.
12(b) 6-Fluorodopamine Hydroxylation. The same procedure was used as described in 12(a), except 0.4 mg of 6-fluorodopamine, kindly provided by Dr. Kenneth Kirk at the National Institutes of Health, was used as a substrate.
Radiat. Isot., 41, 463 (1990) the disclosure of which is incorporated by reference herein, for [^11 C]octopamine enantiomers when a Crownpak CR(+) HPLC column was used.

Data set [7] deals with human heart. The note with it: Schwaiger et al. 1990, Kopin 1990; cited from earlier work.
Data set [8] concerns dog heart. To be noted: Wieland et al. 1990, Rosenspire et al. 1989; cited from earlier work.
The conditions of data set [9]: literature; cited from earlier work.
For data set [10] the following is noted: tracers administered in vivo; Goldstein et al. 1990, Mislankar et al. 1988; cited from earlier work.
Data set [11] has as its system dopamine β-hydroxylase. The note with it: Levin et al. 1960; Goldstein et al. 1962; cited from earlier work.
Data set [12] concerns vesicular transporter. To be noted: Matthaei et al. 1988; cited from earlier work.

“Also recorded” adds a separate entry of the source. Where two headings read alike, the source gives them in different places.

Turning to `NCC(O)c1cc(O)c(O)cc1F` (racemic) [6-fluoronorepinephrine], the “neuronal uptake and storage” value in [1] was “share the same presynaptic mechanisms for the uptake, storage, and synthesis as the parent molecules”; in data set [1] (listed as racemic 6-fluoronorepinephrine), “taken up and stored by adrenergic nerve terminals”.

For the compound `NCC(O)c1cc(O)c(O)cc1[18F]` (racemic) [racemic 6-[^18 F]FNE, 6-[^18 F]fluoronorepinephrine], the “peak concentration of F-18 in myocardium” value in data set [2] (10 minutes post injection, 5 mCi racemic, i.v.) is 0.042 % of the injected does/cc. The “ratio of myocardium to plasma” value stood at 7 in [2] (at 5 minutes, 5 mCi i.v.) and 11.2 in [2] (at 135 minutes, 5 mCi i.v.). Besides, the “uptake and retention/clearance of F-18 in the baboon heart” value in data set [2] (racemic, 5 mCi i.v.) is “high uptake and retention; also recorded: high uptake and a slow clearance”. For the same compound, the distribution of radioactivity entry in data set [3] is “Radioactivity was distributed in the parotid glands, the heart, liver, and bladder”. Further, the clearance from blood entry in data set [4] is listed as “rapid clearance from blood”. Further, the “change in vital signs” value in data set [5] was “no change in vital signs”.

As for `NCCc1cc(O)c(O)cc1F` [6-fluorodopamine], the “neuronal uptake and storage” value in [1] was “share the same presynaptic mechanisms for the uptake, storage, and synthesis as the parent molecules”. Moreover, the “product formed by dopamine β-hydroxylase” value in [6] was “a new HPLC peak at 18 minutes appeared”.

In the case of `C[C@H](N[11CH3])[C@H](O)c1cccc(O)c1` [[^11 C]m-hydroxyephedrine], the “images of the neuronal distribution” value in [7] and in data set [8] was “excellent images” throughout. Also, the metabolic stability entry in data set [9] is on record as “metabolically stable”. For the same compound, in data set [1], the “neuronal uptake and storage” value is “share the same uptake and storage mechanisms as norepinephrine”.

Turning to `NCCc1cc(O)c(O)cc1[18F]` [[^18 F]dopamine, 6-[^18 F]fluorodopamine], in data set [10], the “vasoactivity / hemodynamic effects” value is reported as “hemodynamic effects”.

Take `C[C@H](N)[C@H](O)c1cc(O)ccc1[18F]` [[^18 F]fluorometaraminol]: in data set [10], the “vasoactivity / hemodynamic effects” value is listed as “hemodynamic effects”. The “images of the neuronal distribution” value in data set [7] and in data set [8] was “excellent images” in each case. Further, the metabolic stability entry in [9] is on record as “metabolically stable”. Further, the “neuronal uptake and storage” value in data set [1] is “share the same uptake and storage mechanisms as norepinephrine”.

`NCCc1ccc(O)c(O)c1` [dopamine]: the “enantiospecific conversion by dopamine β-hydroxylase” value in [11] is “enantiospecifically convert dopamine to (-)-norepinephrine”. Moreover, the “time to appearance of (-)-NE peak” value in data set [6] (dopamine as substrate) is listed as “less than 1 hour”. The “product formed by dopamine β-hydroxylase” value in data set [6] was “(+)-NE was not observed”.

For the compound `NC[C@H](O)c1ccc(O)c(O)c1` [norepinephrine], in data set [12], the “stereoselectivity for vesicular transporter” value is on record as “only the levorotatory enantiomer serves as a substrate for the vesicular transporter”. In addition, the “stereoselectivity of neuronal uptake” value in data set [1] (Matthaei et al. 1988) was “not stereoselective”.

The values above are taken from US5254726A, “No-carrier-added (NCA) aryl (18E) fluorides via the nucleophilic aromatic substitution of electron rich aromatic rings” (priority 1991, dated 1993).
